Data published in patent US4678775A, “Method of controlling pests” (priority 1984, dated 1987).
Like-named read-outs stand apart in the source and are kept apart here.

What was measured:
[1] = test system: octopamine-sensitive adenylate cyclase; experiment: Activation of octopamine-sensitive adenylate cyclase, firefly light organ broken cell preparation; type: biochemical, Photinus pyralis
[2] = test system: tobacco hornworms (Manducca sexta); experiment: In vivo leaf test (antifeeding) on tomato leaves with tobacco hornworm larvae; settings: for rank order antifeeding effectiveness: based on the EC50 of the octopamine agonist, alone or +IBMX; for effect of addition of IBMX on antifeeding / pesticidal activity: with PDE inhibitor IBMX
[3] = test system: cyclic AMP in intact nerve cords of tobacco hornworms; experiment: Cyclic AMP content of intact tobacco hornworm nerve cords; type: cell-based; settings: 5 minutes
Procedure: After 5 minutes, the intact nerve cord was quickly treated to release all cyclic AMP which was present within the tissue.

[4] = test system: adenylate cyclase in nerve cord of tobacco hornworm; experiment: Adenylate cyclase activation in broken cell preparations of tobacco hornworm nerve cord; type: biochemical, tobacco hornworm (Manducca sexta); settings: FIG. 1
Procedure: Otherwise, the procedure is identical to that described above.
The tissue is homogenized (usually 15 mg/ml) as above in 6 mM Tris maleate, pH 7.4. […] This is done to cancel out the effects of dopamine and serotonin receptors which are usually present in nerve cord.
As detailed previously, the adenylate cyclase assay, either in the firefly or in other insect pest, is also used to identify a direct stimulator of adenylate cyclase.

[5] = Table 1, ratio greater than 1 = better than (±)-p-octopamine
[6] = Table 4, agonist 10^-1 gm/100 ml, No PDE Inhibitor
[7] = Table 4, agonist 10^-2 gm/100 ml, No PDE Inhibitor
[8] = Table 1, maximal activation as % of that by (±)-p-octopamine, N.A. = No Activity
[9] = Table 2, clonidines, N.A. = no activity
[10] = Table 5, agonist 10^-2 gm/100 ml, IBMX 0.1 g/100 ml
[11] = Table 5, agonist 1 gm/100 ml, IBMX 0.1 g/100 ml
[12] = Table 5, agonist 1 gm/100 ml, No PDE Inhibitor
[13] = Table 5, agonist 10^-1 gm/100 ml, IBMX 0.1 g/100 ml
[14] = Table 5, agonist 10^-1 gm/100 ml, No PDE Inhibitor
[15] = Table 5, agonist 10^-2 gm/100 ml, No PDE Inhibitor

CN(C)CC(O)c1ccc(O)cc1 (racemic) [(±)-N,Ndimethyloctopamine, reference compound]
Ka^oct/Ka^(1) ratio (column head is drawing 15) [1, 5]: 0.9

CNCC(O)c1ccc(O)cc1 (racemic) [(±)-Nmethyloctopamine]
Ka^oct/Ka^(1) ratio (column head is drawing 15) [1]: 1.8 | % Leaf Remaining ([2]; Table 4, agonist 1 gm/100 ml, IBMX 0.1 g/100 ml): 90% | % Leaf Remaining ([2]; Table 4, agonist 1 gm/100 ml, No PDE Inhibitor): 30% | % Leaf Remaining ([2]; Table 4, agonist 10^-1 gm/100 ml, IBMX 0.1 g/100 ml): 55% | % Leaf Remaining [2, 6]: < 5% | % Leaf Remaining ([2]; Table 4, agonist 10^-2 gm/100 ml, IBMX 0.1 g/100 ml): 42% | % Leaf Remaining [2, 7]: < 5%

NCC(O)c1cccc(O)c1 (racemic) [(±)-m-octopamine, reference compound]
Vmax (% OCT) [1, 8]: 9 ± 1 % OCT | Ka^oct/Ka^(1) ratio (column head is drawing 15) [1, 5]: 0.1 | pesticidal activity ([2]; no IBMX): much less pesticidal activity than p-octopamine

CC(N)C(O)c1ccccc1 (racemic) [(±)-norephedrine, reference compound]
Ka^oct/Ka^(1) ratio (column head is drawing 15) [1]: < 0.09 | Vmax (% OCT) [1, 8]: 8 ± 1 % OCT

COc1cc(C(O)CN)ccc1O (racemic) [(±)-normetanephrine, reference compound]
Ka^oct/Ka^(1) ratio (column head is drawing 15) [1, 5]: 0.07

NCC(O)c1ccccc1O (racemic) [(±)-o-octopamine, reference compound]
Ka^oct/Ka^(1) ratio (column head is drawing 15) [1, 5]: 0.05

CC(N)Cc1ccc(O)cc1 (racemic) [(±)-p-hydroxyamphetamine, reference compound]
Ka^oct/Ka^(1) ratio (column head is drawing 15) [1]: < 0.05 | Vmax (% OCT) [1, 8]: 8 ± 3 % OCT

CC(N)C(O)c1ccc(O)cc1 (racemic) [(±)-α-methyloctopamine, reference compound]
Vmax (% OCT) [1, 8]: 44 ± 2 % OCT | Ka^oct/Ka^(1) ratio (column head is drawing 15) [1, 5]: 0.05

CNC(C)C(O)c1ccc(O)cc1 (racemic) [(±)-α-methylsynephrine, reference compound]
Vmax (% OCT) [1, 8]: 7 ± 2 % OCT | Ka^oct/Ka^(1) ratio (column head is drawing 15) [1, 5]: < 0.01

NC[C@@H](O)c1ccc(O)cc1 [(+)-p-octopamine, reference compound]
Vmax (% OCT) [1, 8]: 81 ± 1 % OCT

CNC[C@H](O)c1ccc(O)c(O)c1 [(-)-epinephrine, reference compound]
Ka^oct/Ka^(1) ratio (column head is drawing 15) [1]: 0.20

NC[C@H](O)c1ccc(O)c(O)c1 [(-)-nonrepinephrine, reference compound]
Ka^oct/Ka^(1) ratio (column head is drawing 15) [1, 5]: 0.13

CNC[C@H](O)c1cccc(O)c1 [(-)-phenylephrine, reference compound]
Ka^oct/Ka^(1) ratio (column head is drawing 15) [1, 5]: < 0.2

Cc1cc(Cl)ccc1N=CN [DDCDM, di-demethylchlordimeform, reference compound]
Cyclic AMP Content (Fold-increase over Control) ([3]; +0.1 mM IBMX): 11.1 ± 2.7 Fold-increase over Control | Cyclic AMP Content (Fold-increase over Control) ([3]; -IBMX): 5.4 ± 3.8 Fold-increase over Control | rank order antifeeding effectiveness [2]: DDCDM+IBMX=NC7+IBMX>Octopamine+IBMX=DDCDM alone>NC7 alone>octopamine alone | activation of adenylate cyclase in nerve cord [4]: potent activators

Clc1ccc(Cl)c(N=C2NCCN2)c1 [NC 2]
Ka ratio to octopamine ([1]; Table 2, clonidines): 1.1 | Vmax (% OCT) [1, 9]: 9 % OCT

Clc1cc(Cl)c(N=C2NCCN2)cc1Cl [NC 3]
octopamine potency ratio [1]: 3.0 | Ka ratio to octopamine ([1]; Table 2, clonidines): 2.8 | Vmax (% OCT) [1, 9]: 80 % OCT

Cc1cccc(C)c1N=C1NCCN1 [NC 4]
Ka ratio to octopamine ([1]; Table 2, clonidines): 0.41 | Vmax (% OCT) [1, 9]: 80 % OCT

Brc1cccc(Br)c1N=C1NCCN1 [NC 6]
Ka ratio to octopamine ([1]; Table 2, clonidines): 2.1 | Vmax (% OCT) [1, 9]: 35 % OCT

Cc1cc(Cl)ccc1N=C1NCCN1 [NC 7, 2-(2-methyl, -4-chlorophenylimino)imidazolidine]
octopamine potency ratio [1]: 9.8 | Ka ratio to octopamine ([1]; Table 2, clonidines): 9.8 | Vmax (% OCT) [1, 9]: 68 % OCT | Cyclic AMP Content (Fold-increase over Control) ([3]; +0.1 mM IBMX): 13.9 ± 3.0 Fold-increase over Control | Cyclic AMP Content (Fold-increase over Control) ([3]; -IBMX): 2.2 ± 0.2 Fold-increase over Control | % Leaf Remaining [2, 10]: 85% | Ki for inhibition of feeding by the larvae ([2]; applied to leaves): 0.01 mg/leaf | rank order antifeeding effectiveness [2]: DDCDM+IBMX=NC7+IBMX>Octopamine+IBMX=DDCDM alone>NC7 alone>octopamine alone | behaviour of larvae feeding on treated leaves ([2]; in vivo): tremors, hyperactivity, and leaf walk-off behavior | effect of addition of IBMX on antifeeding / pesticidal activity [2]: substantial increases in the potency | activation of adenylate cyclase in nerve cord [4]: potent activators

Clc1ccc(N=C2NCCN2)c(Cl)c1 [NC 8]
octopamine potency ratio [1]: 3.7 | Ka ratio to octopamine ([1]; Table 2, clonidines): 3.7 | Vmax (% OCT) [1, 9]: 47 % OCT

Cc1ccc(N=C2NCCN2)c(C)c1 [NC 9]
octopamine potency ratio [1]: 5.1 | Ka ratio to octopamine ([1]; Table 2, clonidines): 5.1 | Vmax (% OCT) [1, 9]: 78 % OCT

c1ccc(N=C2NCCN2)cc1 [NC 10]
% Leaf Remaining [2, 11]: 15% | % Leaf Remaining [2, 12]: 5% | % Leaf Remaining [2, 13]: 13% | % Leaf Remaining [2, 14]: 5% | % Leaf Remaining [2, 10]: 15% | % Leaf Remaining [2, 15]: 5% | % Leaf Remaining ([2]; Table 5, agonist 10^-3 gm/100 ml, IBMX 0.1 g/100 ml): 12% | % Leaf Remaining ([2]; Table 5, agonist 10^-3 gm/100 ml, No PDE Inhibitor): 5% | antifeeding activity ([2]; compound itself, in words): lacked antifeeding activity both in the absence or presence of the PDE inhibitor

Clc1cc(Cl)c(N=C2NCCN2)c(Cl)c1 [NC 11]
Ka ratio to octopamine ([1]; Table 2, clonidines): 1.9 | Vmax (% OCT) [1, 9]: 60 % OCT

Brc1ccc(N=C2NCCN2)cc1 [NC 12]
Ka ratio to octopamine ([1]; Table 2, clonidines): 3.0 | Vmax (% OCT) [1, 9]: 34 % OCT

Cc1cc(C)c(N=C2NCCN2)c(C)c1 [NC 13]
octopamine potency ratio [1]: 4.3 | Ka ratio to octopamine ([1]; Table 2, clonidines): 4.3 | Vmax (% OCT) [1, 9]: 112 % OCT

Nc1cc(Cl)c(N=C2NCCN2)c(Cl)c1 [NC 14]
Ka ratio to octopamine ([1]; Table 2, clonidines): 0.7 | Vmax (% OCT) [1, 9]: 29 % OCT

CN(C)c1cc(Cl)c(N=C2NCCN2)c(Cl)c1 [NC 15]
Ka ratio to octopamine ([1]; Table 2, clonidines): 1.9 | Vmax (% OCT) [1, 9]: 38 % OCT

CN(CCCl)c1cc(Cl)c(N=C2NCCN2)c(Cl)c1 [NC 16]
Ka ratio to octopamine ([1]; Table 2, clonidines): 4.8 | Vmax (% OCT) [1, 9]: 6 % OCT

CNCCc1ccc(O)c(O)c1 [Nmethyldopamine, reference compound]
Ka^oct/Ka^(1) ratio (column head is drawing 15) [1, 5]: 0.19

Clc1cccc(Cl)c1N=C1NCCN1 [clonidine, reference compound]
Ka ratio to octopamine [1]: 0.95 | octopamine potency ratio [1]: 0.9 | Vmax (% OCT) ([1]; light organ homogenate): 35 % OCT | Vmax, % that of octopamine ([1]; light organ homogenate): 35% | % Leaf Remaining [2, 11]: 63% | % Leaf Remaining [2, 12]: 65% | % Leaf Remaining [2, 13]: 55% | % Leaf Remaining [2, 14]: 20% | % Leaf Remaining [2, 10]: 55% | % Leaf Remaining [2, 15]: 5% | effect of addition of IBMX on antifeeding / pesticidal activity [2]: substantial increases in the potency

NCCc1ccc(O)c(O)c1 [dopamine, reference compound]
Vmax (% OCT) [1, 8]: 4 ± 1 % OCT | Ka^oct/Ka^(1) ratio (column head is drawing 15) [1, 5]: 0.26

NCC(O)c1ccc(O)c(Cl)c1 (stereo not drawn) [m-chloro-octopamine]
Ka^oct/Ka^(1) ratio (column head is drawing 15) [1, 5]: 0.28

Nc1ncnc2c1nc(Sc1ccc(Cl)cc1)n2[C@@H]1O[C@@H]2COP(=O)(O)O[C@H]2[C@H]1O [p-Cl-phenylthio cyclic AMP, 8-p-chlorophenylthio-cyclic AMP, reference compound]
antifeeding activity ([2]; concentration of 1%, absence of IBMX): showed antifeeding activity | effect of addition of IBMX on antifeeding / pesticidal activity [2]: increased by addition of IBMX

NCC(O)c1ccc(F)cc1 (stereo not drawn) [p-fluoro-phenylethanolamine]
% Leaf Remaining [2, 6]: < 5% | % Leaf Remaining [2, 7]: < 5% | % Leaf Remaining ([2]; Table 4, agonist 10^-3 gm/100 ml, IBMX 0.1 g/100 ml): 50% | % Leaf Remaining ([2]; Table 4, agonist 10^-3 gm/100 ml, No PDE Inhibitor): < 5%

COc1ccc(CCN)cc1 [p-methoxyphenylethylamine, reference compound]
Vmax (% OCT) [1, 8]: 6 ± 3 % OCT | Ka^oct/Ka^(1) ratio (column head is drawing 15) [1, 5]: 0.10

NCCc1ccc(O)cc1 [tyramine, reference compound]
Ka^oct/Ka^(1) ratio (column head is drawing 15) [1, 5]: 0.15

NCCc1ccccc1 [β-phenylethylamine, reference compound]
Ka^oct/Ka^(1) ratio (column head is drawing 15) [1]: 0.03
